The source of these data is ChEMBL document CHEMBL1124563, “On the structure selectivity problem in drug design. A comparative study of benzylpyrimidine inhibition of vertebrate and bacterial dihydrofolate reductase via molecular graphics and quantitative structure-activity relationships” (J Med Chem, 1989).

In data set [1] the target is T1, Dihydrofolate reductase (Gallus gallus, UniProt P00378).
T1 sequence (P00378 whole entry): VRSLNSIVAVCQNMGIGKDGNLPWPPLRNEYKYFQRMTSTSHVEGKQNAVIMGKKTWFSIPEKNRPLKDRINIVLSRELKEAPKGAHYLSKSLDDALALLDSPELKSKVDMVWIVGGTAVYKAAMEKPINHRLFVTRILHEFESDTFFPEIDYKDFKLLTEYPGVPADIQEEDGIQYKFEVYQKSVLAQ
Description: Inhibitory activity against chicken liver dihydrofolate reductase

The target in data set [2] is Dihydrofolate reductase (Lactobacillus casei, UniProt P00381).
Sequence of Dihydrofolate reductase (Lactobacillus casei, UniProt P00381) (P00381 whole entry): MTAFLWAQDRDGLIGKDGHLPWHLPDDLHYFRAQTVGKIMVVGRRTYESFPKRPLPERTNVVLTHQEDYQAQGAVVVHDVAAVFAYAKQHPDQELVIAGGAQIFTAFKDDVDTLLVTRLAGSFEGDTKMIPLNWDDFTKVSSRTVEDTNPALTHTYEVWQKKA
Description: Inhibitory activity against Lactobacillus casei dihydrofolate reductase
A short description of data set [3]: Partition coefficient (logD) (aqueous phase 0.1 N HCl).
Data set [4] can be described thus: Partition coefficient (logD) (0.01 N NaOH). It counts as physicochemical.
A short description of data set [5]: Toxic index against Dihydrofolate reductase. Format: ADME.

On to `CCOc1cc(Cc2cnc(N)nc2N)ccc1OCc1ccccc1`, for which the Ki at Dihydrofolate reductase [1] was 18200 nM; on Dihydrofolate reductase [2], 309 nM. Besides, the logD in data set [3] (0.1 N HCl (aqueous phase)) came to 1.

As for `CC(=O)Nc1ccc(Cc2cnc(N)nc2N)cc1[N+](=O)[O-]`, in data set [3] (0.1 N HCl (aqueous phase)), the logD was -2.23.

As to `CCOc1cc(Cc2cnc(N)nc2N)cc(OCC)c1`, the values for the Ki at Dihydrofolate reductase [1] and at Dihydrofolate reductase [2] were 72400 nM and 389 nM, respectively.

In turn, `Cc1cc(C)cc(Cc2cnc(N)nc2N)c1` showed a Ki on Dihydrofolate reductase [2] of 1350 nM.

Take `COc1cc(Cc2cnc(N)nc2N)ccc1OCc1ccccc1`: the figures for the Ki at Dihydrofolate reductase [1] and on Dihydrofolate reductase [2] were 19100 nM and 316 nM, respectively. In addition, the logD in data set [4] (0.01 N NaOH, read-out: logD) was determined as 2.66.

Turning to `COc1cc(Cc2cnc(N)nc2N)cc(OC)c1N(C)C` [ADITOPRIM], the Ki is 70800 nM at Dihydrofolate reductase [1] and 355 nM on Dihydrofolate reductase [2].

Take `CCCOc1cc(Cc2cnc(N)nc2N)cc(OCCC)c1`: the figures for the Ki at Dihydrofolate reductase [1] and on Dihydrofolate reductase [2] were 74100 nM and 646 nM, respectively.

Turning to `COc1ccc(Cc2cnc(N)nc2N)cc1OCc1ccccc1`, the Ki is 18200 nM on Dihydrofolate reductase [1] and 123 nM at Dihydrofolate reductase [2]. The logD in data set [4] (0.01 N NaOH, read-out: logD) turned out to be 2.44.

As for `CCc1cc(Cc2cnc(N)nc2N)cc(NC(C)=O)c1CO`, the Ki on Dihydrofolate reductase [1] is 347000 nM; at Dihydrofolate reductase [2], 151 nM. In addition, in data set [5], the Toxicity index amounted to 3.36. Also, the logD in data set [3] (0.1 N HCl (aqueous phase)) is -2.17.

In the case of `CCCCCCCCOc1cc(Cc2cnc(N)nc2N)ccc1OC`, the Ki is 19500 nM at Dihydrofolate reductase [1] and 316 nM on Dihydrofolate reductase [2]. In data set [3] (0.1 N HCl (aqueous phase)), this molecule showed a logD of 2.54.

Consider `COCCOc1ccc(Cc2cnc(N)nc2N)cc1OC`, for which the inhibition constant (Ki) at Dihydrofolate reductase [1] is 64600 nM; at Dihydrofolate reductase [2], 288 nM. The molecule further showed a logD in data set [3] (0.1 N HCl (aqueous phase)) of -1.87.

As to `CCCCCCCOc1ccc(Cc2cnc(N)nc2N)cc1`, the inhibitory constant (Ki) at Dihydrofolate reductase [2] is 4170 nM.

On to `CS(=O)(=O)Oc1ccc(Cc2cnc(N)nc2N)cc1`, for which the Ki was 49000 nM at Dihydrofolate reductase [1] and 324 nM on Dihydrofolate reductase [2]. The logD in data set [4] (0.01 N NaOH, read-out: logD) is 0.6.

On to `CCCOc1cc(Cc2cnc(N)nc2N)cc(OCC)c1`, for which the Ki on Dihydrofolate reductase [1] is 43700 nM; on Dihydrofolate reductase [2], 589 nM.

`COc1ccc(Cc2cnc(N)nc2N)cc1OS(C)(=O)=O`: the Ki on Dihydrofolate reductase [1] was 29500 nM; on Dihydrofolate reductase [2] it was 214 nM. The molecule also yielded a logD in data set [3] (0.1 N HCl (aqueous phase)) of -1.92.

Molecule `COc1cc(Cc2cnc(N)nc2N)cc(OC)c1Br` [BRODIMOPRIM] showed a Ki at Dihydrofolate reductase [2] of 52.5 nM. Also, the logD in data set [4] (0.01 N NaOH, read-out: logD) was 2.01.

As to `Nc1ncc(Cc2ccc(O)cc2)c(N)n1`, the Ki at Dihydrofolate reductase [1] is 67600 nM; on Dihydrofolate reductase [2] it was 417 nM. Moreover, in data set [3] (0.1 N HCl (aqueous phase)), the logD is -1.47.

As to `COc1cc(Cc2cnc(N)nc2N)ccc1OS(C)(=O)=O`, the Ki at Dihydrofolate reductase [1] was 25700 nM; at Dihydrofolate reductase [2], 363 nM. Besides, the logD in data set [4] (0.01 N NaOH, read-out: logD) is 0.6.

With `Nc1ncc(Cc2ccc(OC(F)(F)F)cc2)c(N)n1`, the affinity on Dihydrofolate reductase [1], expressed as Ki, was 47900 nM.

`COc1ccc(Cc2cnc(N)nc2N)cc1OC` [DIAVERIDINE]: the logD in data set [4] (0.01 N NaOH, read-out: logD) is 0.97.

For the molecule `CCCCCCCCOc1c(OC)cc(Cc2cnc(N)nc2N)cc1OC`, the inhibitory constant (Ki) at Dihydrofolate reductase [1] is 17000 nM; on Dihydrofolate reductase [2], 2000 nM.

As for `C=C(C)c1c(OC)cc(Cc2cnc(N)nc2N)cc1OC`, the results for the Ki on Dihydrofolate reductase [1] and on Dihydrofolate reductase [2] were 67600 nM and 45.7 nM, respectively. For the same molecule, the logD in data set [4] (0.01 N NaOH, read-out: logD) worked out at 2.07.

`Nc1ncc(Cc2ccc(O)c(O)c2)c(N)n1`: the logD in data set [3] (0.1 N HCl (aqueous phase)) stood at 2.08.

Consider `CCCCOCc1cccc(Cc2cnc(N)nc2N)c1`, for which the logD in data set [4] (0.01 N NaOH, read-out: logD) is 2.88.

Consider `Nc1ncc(Cc2ccc3c(c2)OCO3)c(N)n1`, for which the Ki on Dihydrofolate reductase [1] is 20900 nM; on Dihydrofolate reductase [2], 457 nM.

Consider `COc1cccc(Cc2cnc(N)nc2N)c1`, for which the logD in data set [4] (octanol/water) stood at 1.54.

Regarding `COc1ccc(Cc2cnc(N)nc2N)cc1C(F)(F)F`, the Ki at Dihydrofolate reductase [2] was 79.4 nM. The same molecule displayed a pH-dependent lipophilicity (logD) in data set [3] (0.1 N HCl (aqueous phase)) of -0.18.

As to `CCc1cc(Cc2cnc(N)nc2N)cc(CC)c1CC`, the Ki at Dihydrofolate reductase [1] was 5620 nM; on Dihydrofolate reductase [2], 132 nM.

In turn, `COc1cc(Cc2cnc(N)nc2N)cc(OC)c1SC` [METIOPRIM] had a Ki at Dihydrofolate reductase [2] of 56.2 nM. The log distribution coefficient (logD) in data set [4] (0.01 N NaOH, read-out: logD) turned out to be 1.54.

With `Nc1ncc(Cc2ccc(OCc3ccccc3)cc2)c(N)n1`, the values for the Ki at Dihydrofolate reductase [1] and on Dihydrofolate reductase [2] were 14800 nM and 447 nM, respectively.

Take `CCOc1cc(Cc2cnc(N)nc2N)cc(OCC)c1-n1cccc1` [EPIROPRIM]: the results for the Ki on Dihydrofolate reductase [1] and at Dihydrofolate reductase [2] were 46800 nM and 46.8 nM, respectively.

`COc1ccc(Cc2cnc(N)nc2N)cc1O`: the Ki at Dihydrofolate reductase [1] was 141000 nM; on Dihydrofolate reductase [2], 257 nM. For the same molecule, the logD in data set [4] (0.01 N NaOH, read-out: logD) amounted to 0.74.

Consider `Nc1ccc(Cc2cnc(N)nc2N)cc1`, for which the logD in data set [4] (0.01 N NaOH, read-out: logD) is 0.22.

Take `Nc1ncc(Cc2ccc(-c3ccccc3)cc2)c(N)n1`: the results for the Ki on Dihydrofolate reductase [1] and on Dihydrofolate reductase [2] were 5500 nM and 389 nM, respectively. This molecule also registered a logD in data set [3] (0.1 N HCl (aqueous phase)) of 0.98.

In data set [4] (octanol/water), `Nc1ncc(Cc2ccccc2)c(N)n1` returned a logD of 1.54.

`Nc1ncc(Cc2cccc(O)c2)c(N)n1` registered a log distribution coefficient (logD) in data set [3] (0.1 N HCl (aqueous phase)) of -1.34.

As to `CCc1cc(Cc2cnc(N)nc2N)cc(CO)c1CO`, the Ki on Dihydrofolate reductase [1] is 263000 nM; on Dihydrofolate reductase [2], 195 nM. In data set [5], this molecule showed a Toxic index of 3.13. Also, the logD in data set [3] (0.1 N HCl (aqueous phase)) was -2.23.

Take `COCCOc1ccc(Cc2cnc(N)nc2N)cc1OCCOC`: in data set [3] (octanol/water), the logD was found to be 1.89.

Regarding `COCCOc1c(Cc2cnc(N)nc2N)ccc(OC)c1OC`, the Ki at Dihydrofolate reductase [1] is 229000 nM; at Dihydrofolate reductase [2] it was 550 nM. Moreover, in data set [5], the Toxic index is reported as 2.62. For the same molecule, in data set [3] (0.1 N HCl (aqueous phase)), the logD was -1.81.

For the molecule `COc1cc(Cc2cnc(N)nc2N)ccc1O`, the Ki was 49000 nM at Dihydrofolate reductase [1] and 339 nM at Dihydrofolate reductase [2]. Further, the logD in data set [4] (0.01 N NaOH, read-out: logD) turned out to be 0.64.

By Ki is commonly meant the equilibrium dissociation constant of an inhibitor or competing ligand from its target. Read a high Ki as weaker binding. By logD is commonly meant lipophilicity at a set pH, counting ionised and neutral species.
